Test results from patent publication US20240358692A1, “TREATMENT OF SCLERODERMA” (Aisa Pharma, Inc., priority 2023, published 2024).

Test system: participants with SSc-RP
Assay: Frequency of weekly symptomatic RP attacks (patient diary), Phase 2a Part A
Format: in vivo, human
Details: ITT Part A
From the text: Percent change from baseline evaluation for frequency of weekly RP attacks were or will be used as the primary efficacy variable. The sponsor-developed participant-informed diary will be used to record data. Frequency of weekly RP attacks is defined as the total number of RP attacks divided by the number of days with available diary data within the last 7 days of each dosing period then multiplied by 7. Total number of RP attacks during the last 7 days of screening period divided by the number of days with available data then multiplied by 7 will be used as baseline for the analysis of all periods. The variable will be calculated as follows: […]
Percent change from baseline evaluation for frequency of weekly RP attacks was and will be the primary efficacy endpoint. Frequency of weekly RP attacks is defined as the total number of RP attacks divided by the number of days with available diary data within the last 7 days of each dosing period then multiplied by 7. Total number of RP attacks during the last 7 days of screening period divided by the number of days with available data then multiplied by 7 will be used as baseline for the analysis of all periods.

[1] = Tadalafil 5 mg, n=1, Excluding Outliers
[2] = Tadalafil 5 mg, n=2, by Baseline RCS, second block (RCS >5.0)
[3] = tadalafil 5 mg daily, n=1, excluding outliers, second Baseline RCS subgroup, last 7 days of dosing

CN1CC(=O)N2[C@H](c3ccc4c(c3)OCO4)c3[nH]c4ccccc4c3C[C@@H]2C1=O [Tadalafil]
Weekly Symptomatic RP Attacks Change from Baseline, Mean [1]: 6.00 | Weekly Symptomatic RP Attacks Percent Change from Baseline, Mean [1]: 50.00% | Weekly Symptomatic RP Attacks, Mean [1]: 18.00 | Weekly Symptomatic RP Attacks Change from Baseline, Mean [2]: 4.50 | Weekly Symptomatic RP Attacks Percent Change from Baseline, Mean [2]: 62.50% | Weekly Symptomatic RP Attacks, Mean [2]: 12.50 | Weekly Symptomatic RP Attacks Change from Baseline, Mean [3]: 6.00 | Weekly Symptomatic RP Attacks Percent Change from Baseline, Mean [3]: 50.00% | Weekly Symptomatic RP Attacks, Mean [3]: 18.00
